Laboratory results reported in ChEMBL document CHEMBL3822435, “Synthesis, antiproliferative and pro-apoptotic activity of 2-phenylindoles” (Bioorg Med Chem, 2016).
The source made the active and inactive calls. No cut-off for these calls is given here.

These compounds were tested on MCF7 (assay: Induction of apoptosis in human MCF7 cells assessed as apoptotic cells at 10 uM measured after 72 hrs by propidium iodide staining-based flow cytometric analysis (reference value: 5.5 +/- 1.3%)). Details: not given.
Format: functional
Compound `CNCCCCCCCCCCCCn1c(-c2ccc(O)cc2)c(C)c2cc(O)ccc21` has an Activity of 7.5%.
`Cc1c(-c2ccc(O)cc2)n(CCCCn2c(-c3ccc(O)cc3)c(C)c3cc(O)ccc32)c2ccc(O)cc12` showed an Activity of 54.7%.
With `COc1ccc(/C=C(/C(=O)N(C)CCCCCCCCCCCCn2c(-c3ccc(O)cc3)c(C)c3cc(O)ccc32)c2cc(OC)c(OC)c(OC)c2)cc1O` the Activity was 42.1%.

These compounds were tested on MCF7 (assay: Induction of apoptosis in human MCF7 cells assessed as accumulation at G2/M-phase at 10 uM measured after 72 hrs by propidium iodide staining-based flow cytometric analysis). Details: not given.
Format: functional, cell-based
In the case of `CNCCCCCCCCCCCCn1c(-c2ccc(O)cc2)c(C)c2cc(O)ccc21`, the Activity is reported as “inactive”.
With `Cc1c(-c2ccc(O)cc2)n(CCCCn2c(-c3ccc(O)cc3)c(C)c3cc(O)ccc32)c2ccc(O)cc12` the Activity was “inactive”.
`COc1ccc(/C=C(/C(=O)N(C)CCCCCCCCCCCCn2c(-c3ccc(O)cc3)c(C)c3cc(O)ccc32)c2cc(OC)c(OC)c(OC)c2)cc1O` was tested, and the Activity was “inactive”.

Each compound was assayed against Estrogen receptor beta (Homo sapiens, UniProt Q92731) (assay: not given). Details: not given.
Chain of Estrogen receptor beta (Q92731 whole entry): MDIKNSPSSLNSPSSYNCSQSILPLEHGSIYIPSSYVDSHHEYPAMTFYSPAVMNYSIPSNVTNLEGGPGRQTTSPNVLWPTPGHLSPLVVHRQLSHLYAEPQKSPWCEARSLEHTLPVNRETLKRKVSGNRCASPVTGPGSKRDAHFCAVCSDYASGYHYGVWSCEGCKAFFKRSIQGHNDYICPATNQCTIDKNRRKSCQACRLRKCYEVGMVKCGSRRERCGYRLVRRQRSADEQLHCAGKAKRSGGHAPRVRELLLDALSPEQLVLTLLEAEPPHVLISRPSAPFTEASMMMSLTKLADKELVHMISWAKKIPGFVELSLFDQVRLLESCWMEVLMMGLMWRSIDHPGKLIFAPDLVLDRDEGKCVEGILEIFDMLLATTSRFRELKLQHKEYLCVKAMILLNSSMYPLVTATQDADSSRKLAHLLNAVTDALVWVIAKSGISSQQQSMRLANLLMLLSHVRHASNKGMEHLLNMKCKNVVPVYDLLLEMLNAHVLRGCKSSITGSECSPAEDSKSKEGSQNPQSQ
`CNCCCCCCCCCCCCn1c(-c2ccc(O)cc2)c(C)c2cc(O)ccc21` showed an IC50 of 1.66 µM.
With `Cc1c(-c2ccc(O)cc2)n(CCCCn2c(-c3ccc(O)cc3)c(C)c3cc(O)ccc32)c2ccc(O)cc12` the IC50 was 0.041 µM.
For `COc1ccc(/C=C(/C(=O)N(C)CCCCCCCCCCCCn2c(-c3ccc(O)cc3)c(C)c3cc(O)ccc32)c2cc(OC)c(OC)c(OC)c2)cc1O`, the IC50 was 0.155 µM.

Each compound was assayed on PBMC (assay: Induction of apoptosis in human PBMCs assessed as accumulation at G2/M-phase at 10 uM measured after 72 hrs by propidium iodide staining-based flow cytometric analysis). Details: not given.
Format: cell-based
With `CNCCCCCCCCCCCCn1c(-c2ccc(O)cc2)c(C)c2cc(O)ccc21` the Activity was “Non-toxic”.
For `Cc1c(-c2ccc(O)cc2)n(CCCCn2c(-c3ccc(O)cc3)c(C)c3cc(O)ccc32)c2ccc(O)cc12`, the Activity was “Non-toxic”.
`COc1ccc(/C=C(/C(=O)N(C)CCCCCCCCCCCCn2c(-c3ccc(O)cc3)c(C)c3cc(O)ccc32)c2cc(OC)c(OC)c(OC)c2)cc1O` was tested, and the Activity was “Non-toxic”.

These compounds were tested against T1, Estrogen receptor (Homo sapiens, UniProt P03372) (assay: not given). Details: not given.
T1 sequence (P03372 whole entry): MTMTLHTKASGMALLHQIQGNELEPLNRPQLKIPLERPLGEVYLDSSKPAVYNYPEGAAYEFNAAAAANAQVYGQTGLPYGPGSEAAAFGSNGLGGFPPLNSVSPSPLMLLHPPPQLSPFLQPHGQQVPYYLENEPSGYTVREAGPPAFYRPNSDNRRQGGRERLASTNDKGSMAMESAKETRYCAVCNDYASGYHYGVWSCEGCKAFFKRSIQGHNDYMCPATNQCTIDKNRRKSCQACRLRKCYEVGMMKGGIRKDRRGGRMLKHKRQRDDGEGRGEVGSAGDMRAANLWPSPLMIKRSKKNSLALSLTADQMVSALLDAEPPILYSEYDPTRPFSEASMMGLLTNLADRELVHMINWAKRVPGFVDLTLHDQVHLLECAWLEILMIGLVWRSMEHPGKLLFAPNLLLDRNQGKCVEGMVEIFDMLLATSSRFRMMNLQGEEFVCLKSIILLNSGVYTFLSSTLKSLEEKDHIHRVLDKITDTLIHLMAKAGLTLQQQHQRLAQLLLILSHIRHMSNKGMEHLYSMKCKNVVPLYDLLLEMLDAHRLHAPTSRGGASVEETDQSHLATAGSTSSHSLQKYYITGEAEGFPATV
`CNCCCCCCCCCCCCn1c(-c2ccc(O)cc2)c(C)c2cc(O)ccc21` was tested, and the IC50 was 0.38 µM.
`Cc1c(-c2ccc(O)cc2)n(CCCCn2c(-c3ccc(O)cc3)c(C)c3cc(O)ccc32)c2ccc(O)cc12` showed an IC50 of 0.436 µM.
Compound `COc1ccc(/C=C(/C(=O)N(C)CCCCCCCCCCCCn2c(-c3ccc(O)cc3)c(C)c3cc(O)ccc32)c2cc(OC)c(OC)c(OC)c2)cc1O` has an IC50 of 0.574 µM.

Each compound was assayed on PBMC (assay: Induction of apoptosis in human PBMCs assessed as apoptotic cells at 10 uM measured after 72 hrs by propidium iodide staining-based flow cytometric analysis (reference value: 1.5 +/- 0.6%)). Details: not given.
Format: cell-based
In the case of `CNCCCCCCCCCCCCn1c(-c2ccc(O)cc2)c(C)c2cc(O)ccc21`, the Activity is reported as “Non-toxic”.
Compound `Cc1c(-c2ccc(O)cc2)n(CCCCn2c(-c3ccc(O)cc3)c(C)c3cc(O)ccc32)c2ccc(O)cc12` has an Activity of 16.7%.
`COc1ccc(/C=C(/C(=O)N(C)CCCCCCCCCCCCn2c(-c3ccc(O)cc3)c(C)c3cc(O)ccc32)c2cc(OC)c(OC)c(OC)c2)cc1O` was tested, and the Activity was “Non-toxic”.

These compounds were tested on MCF7 (assay: cells). Details: Homo sapiens, MCF7, 72 h.
Description: Antiproliferative activity against ER-positive human MCF7 cells assessed as reduction in cell viability measured after 72 hrs by AlamarBlue assay
For `Cc1c(-c2ccc(O)cc2)n(CCCCCCCCn2c(-c3ccc(O)cc3)c(C)c3cc(O)ccc32)c2ccc(O)cc12`, the IC50 was 6.6 µM.
With `Cc1c(-c2ccc(O)cc2)n(CCCCCn2c(-c3ccc(O)cc3)c(C)c3cc(O)ccc32)c2ccc(O)cc12` the IC50 was 4.16 µM.
`Cc1c(-c2ccc(O)cc2)n(CCCCCCCCCCCCn2c(-c3ccc(O)cc3)c(C)c3cc(O)ccc32)c2ccc(O)cc12` was tested, and the IC50 was 5.24 µM.
Compound `CNCCCCCCCCn1c(-c2ccc(O)cc2)c(C)c2cc(O)ccc21` has an IC50 of 38.9 µM.
In the case of `Cc1c(-c2ccc(O)cc2)n(Cc2ccc(O)cc2)c2ccc(O)cc12`, the IC50 is reported as 38.9 µM.
`Cc1c(-c2ccc(O)cc2)n(Cc2ccc(F)cc2)c2ccc(O)cc12` showed an IC50 of 41 µM.
Compound `CCCCn1c(-c2ccc(O)cc2)c(C)c2cc(O)ccc21` has an IC50 of 34 µM.
With `CNCCCCCn1c(-c2ccc(O)cc2)c(C)c2cc(O)ccc21` the IC50 was 49 µM.
`COc1ccc(-c2c(C)c3cc(OC)ccc3n2CCCCN(C)C(=O)/C(=C/c2ccc(OC)c(O)c2)c2cc(OC)c(OC)c(OC)c2)cc1` gave an IC50 of 81.3 µM.
In the case of `Cc1c(-c2ccc(O)cc2)n(Cc2ccc(Cn3c(-c4ccc(O)cc4)c(C)c4cc(O)ccc43)cc2)c2ccc(O)cc12`, the IC50 is reported as 3.5 µM.
For `COc1ccc(/C=C(/C(=O)N(C)CCCCCCCCn2c(-c3ccc(O)cc3)c(C)c3cc(O)ccc32)c2cc(OC)c(OC)c(OC)c2)cc1O`, the IC50 was 2.95 µM.
`CNCCCCn1c(-c2ccc(O)cc2)c(C)c2cc(O)ccc21` showed an IC50 of 40.7 µM.
`CNCCCCCCCCCCCCn1c(-c2ccc(O)cc2)c(C)c2cc(O)ccc21` showed an IC50 of 33 µM.
For `COc1ccc(/C=C(/C(=O)N(C)CCCCn2c(-c3ccc(O)cc3)c(C)c3cc(O)ccc32)c2cc(OC)c(OC)c(OC)c2)cc1O`, the IC50 was 1.99 µM.
`COc1ccc(/C=C(/C(=O)N(C)CCCCCCn2c(-c3ccc(O)cc3)c(C)c3cc(O)ccc32)c2cc(OC)c(OC)c(OC)c2)cc1O` gave an IC50 of 2.34 µM.
`Cc1c(-c2ccc(O)cc2)n(CCO)c2ccc(O)cc12` gave an IC50 of 17.7 µM.
For `COc1cc(Cn2c(-c3ccc(O)cc3)c(C)c3cc(O)ccc32)cc(OC)c1OC`, the IC50 was 332 µM.
With `COc1ccc(/C=C(/C(=O)N(C)CCCCCn2c(-c3ccc(O)cc3)c(C)c3cc(O)ccc32)c2cc(OC)c(OC)c(OC)c2)cc1O` the IC50 was 2.93 µM.
Compound `Cc1c(-c2ccc(O)cc2)n(CCCCn2c(-c3ccc(O)cc3)c(C)c3cc(O)ccc32)c2ccc(O)cc12` has an IC50 of 2.75 µM.
With `CNCCCCCCn1c(-c2ccc(O)cc2)c(C)c2cc(O)ccc21` the IC50 was 41.7 µM.
Compound `Cc1c(-c2ccc(O)cc2)n(CCCCCCn2c(-c3ccc(O)cc3)c(C)c3cc(O)ccc32)c2ccc(O)cc12` has an IC50 of 8.16 µM.
For `COc1ccc(/C=C(/C(=O)N(C)CCCCCCCCCCCCn2c(-c3ccc(O)cc3)c(C)c3cc(O)ccc32)c2cc(OC)c(OC)c(OC)c2)cc1O`, the IC50 was 1.86 µM.
